In article PMC13243568, “Massive barcode-free chemical screenings enable the discovery of bioactive macrocycles with passive membrane permeability” (Nature Communications, 2026):
“Also recorded” adds a separate entry of the source. Starred links: 1 amine or outer side, 2 acyl side, 3 side chain; linkers in the order of their positions; H or OH if unused. Positions of bridges follow the written chain, without caps; N, C: chain ends. Non-standard residues stand in square brackets, D forms with d. Residues, ends and D or L forms follow the SMILES beside them. *: point of attachment. Phenylacetyl(3,4,5-triOMe) = COc1cc(CC(=O)*)cc(OC)c1OC; Biotin = O=C1N[C@H]2[C@H](CS[C@H]2CCCCC(=O)*)N1; Benzoyl(4-SO2NH2) = NS(=O)(=O)c1ccc(C(=O)*)cc1; Tyr(3-Cl) = N[C@@H](Cc1ccc(O)c(Cl)c1)C(=O)O; X1 = O=C([C@H]1CC[C@@H](N[*:1])C1)[*:2]; oXylylene = c1ccc(C[*:2])c(C[*:1])c1; εLys = N[C@@H](CCCCN[*:1])C(=O)[*:2]

Experiments:
WDR5-MLL PPI = biological target: T1, WDR5-MLL PPI (Homo sapiens, UniProt P61964); assay: BLI competition assay, displacement of immobilized MLL peptide 16 from WDR5; type: binding; details: for displacement of MLL peptide from WDR5: tested at 100 and 50 nM WDR5; for Binding (ratio to control): Figure S11, BLI competition, control = WDR5 without inhibitor; for inhibition of WDR5-MLL interaction, in words: 100 nM inhibitor, MLL immobilized on BLI tips
T1 construct: A truncated human WDR5 construct encoding amino acids 22–; SUMO (N); made in house; host or cells: E. coli BL21 (DE3) (WDR5); the peptide was made by chemical synthesis
Method: Purified biotinylated competitors were dissolved in the appropriate kinetic buffer and immobilized onto the streptavidin biosensors at 100 nM for 60 s. Sensors were then dipped into the kinetic buffer for 60 s, and the concentration gradient of macrocyclic hit in a constant concentration protein solution for 600 s. Measurements were carried out at 20 °C. […]
was immobilized for 60 sec. at 100 nM. […]
were reincubated and association was measured for 600 sec. […]
Biolayer interferometry (BLI): Biolayer interferometry (BLI) assays were performed in 96 well plates (GreinerBio -One, polypropylene, flat ‐bottom, chimney well) using an Octet R4 system (SATORIUS).
Wells were filled with 200 μL with kinetic buffer, compound solution or protein solution , purifi ed compounds . Proteins were dissolved in the appropriate kinetic buffer specific for each target (CAIX:
Tween -20, 1 mg/mL BSA [0.1% w/v]). […]
Measurements were carried out at 20 °C.
Competition assay: Purified biotinylated competitor were dissolved in appropriate kinetic buffer and immobilized onto the streptavidin biosensors at 100nM for 60s. Sensors were then dipped into kinetic buffer for 60 s and concentration gradient of macrocyclic hit in constant concentration protein solution for 600s. Measurements were carried out at 20 °C.

[1] = Parallel artificial membrane permeability assay (PAMPA); type: in vitro ADME
Method: The plate system consisted of a 96-well microwell plate (donor wells) and a 96-well insert containing a PVDF membrane coated with tri-layers of phospholipids (acceptor wells). Permeability was measured from the bottom plate (donor wells) to the top insert (acceptor wells). Cyclic peptide or reference compound solutions were prepared at a concentration of 100 μM in 1xPBS buffer (pH 7.4) containing 1% DMSO, and 300 μl of the resulting solutions was placed into the donor wells of the PAMPA plate. Acceptor wells were prepared by adding 200 μl of PBS buffer (pH 7.4) containing 1% DMSO. The insert was stacked onto the donor plate, and the system was covered with a lid to avoid evaporation. […] Additionally, 3:2 dilutions of the 100 μM cyclic peptide stocks were prepared in 1xPBS buffer (pH 7.4) containing 1% DMSO to yield a sample corresponding to the theoretical equilibrium between donor and acceptor wells. The samples were run on the UPLC–HRMS to measure the cyclic peptide concentration representing maximum permeability. […]
Parallel artificial membrane permeability assay (PAMPA):
Permeability measurements
The insert was then stacked onto the donor […]
concentration of permeated peptides. To establish a reference for maximum permeability, 3:2 […]
the theoretical equilibrium between the donor and acceptor chambers. These equilibrium samples […]
Permeability (%) = [PeptideAcceptor ] (4)
P = VD×VA × −ln (1 − [PeptideAcceptor] ) (5) […]

MV-4:11 cells = assay: Cell viability, CellTiter-Glo, MV-4:11; type: cell-based; details: 72 h
Method: 5000 HL-60 (DSMZ ACC3), 3000 MV411 (DSMZ ACC554), and 7000 MOLM13 (DSMZ ACC554) cells were plated into an opaque-colored 96-well plate (Greiner Bio-One cat no 655083). […] About 100 μl CellTiter-Glo reagent was added to each well, and the plates were shaken for 5 min at 500 rpm. Luminescent signal was stabilized by incubating the plates for 10 min at RT. Luminescence was measured on the Victor X3 plate reader (Perkin Elmer).
were plated into an opaque colored 96 wells plate (Greiner Bio -one cat no 655083). Cells were plated
no G7570). 100 µl CellTiter-Glo reagent was added to each well and plates were shaken 5 minutes at 500 rpm. Luminescent signal was stabilized by incubating the plates 10 minutes at RT. Luminescence was measured on the Victor X3 plate reader (Perkin Elmer).

CAIX = biological target: T2, CAIX (Homo sapiens, UniProt Q16790); assay: BLI direct binding assay against CAIX; details: biotinylated hit immobilized on streptavidin sensor, CAIX in solution; curves did not reach saturation; read-out: kinetic KD (BLI)
T2 construct: Anhydrase IX (38-414), His,Avitag (CA9H82E3); His; Avitag (biotinylated); purchased ACROBiosystems CA9H82E3
Method: Biolayer interferometry (BLI) assays were performed in 96-well plates (GreinerBio-One, polypropylene, flat-bottom, chimney well) using an Octet R4 system (SATORIUS). Wells were filled with 200 μL of kinetic buffer, compound solution or protein solution, purified compounds. Proteins were dissolved in the appropriate kinetic buffer specific for each target (CAIX: 1× PBS, 0.02% Tween-20, 1 mg/mL BSA [0.1% w/v]; WDR5: 20 mM Tris, 500 mM NaCl, pH 8.0, 0.02% Tween-20, and 1 mg/mL BSA [0.1% w/v]).
Purified biotinylated compounds were dissolved in an appropriate kinetic buffer and immobilized onto the streptavidin biosensor for 60 s. Sensors were then dipped into the kinetic buffer for 60 s, a concentration gradient of protein solution for 300 s and into the kinetic buffer for 300 s. Measurements were carried out at 20 °C.
Table S2: ASMS buffer summary.
B Biotinylated CAIX (1.5 μM) in A Biotinylated WDR5 (1.5 μM) in A […]
μM d-biotin 0.02% Tween-20, 400 μM biotin
D 10% FBS, 1x PBS 20m mM Tris, 500 mM NaCl, pH 8, 10% FBS, E 10 fmol/member library in buffer D 10 fmol/member library in buffer D F 1x PBS 20m mM Tris, 500 mM NaCl, pH 8
G 6M Guanidine HCl, 200 mM phosphate 6M Guanidine HCl, 200 mM phosphate buffer, pH 6.8, 10 mM TCEP HCl buffer, pH 6.8, 10 mM TCEP HCl
Sample preparation after AS: Following the affinity selection, samples were desalted using StageTips. […]

[2] = Serum stability assay in 25% human serum; details: pH 7.4
Method: The mixture was vortexed immediately after protein addition. […] After incubating on ice for 1 h, the samples were centrifuged at 10,000×g for 5 min. The supernatant was then injected into the UPLC–HRMS (20 μL) and the AUC of both peptide and IS calculated by analyzing the XIC curve for each exact mass value. For each run and timepoint, the peptide AUC was then normalized to the IS AUC.
vortexed immediately after protein addition. At different time points, a sample was retrieved and the
degradation reaction was quenched by the addition of 20% trichloroacetic acid (w/w) in 1x PBS
After incubating on ice for 1h , the samples were centrifuged at
10,000 rpms for 5 min. The supernatant was then injected into the UPLC -HRMS and the AUC of both
peptide and IS by analyzing the XIC curve for each exact mass value. For each run and timepoint, the peptide AUC was then normalized to the IS AUC . The relative stability values were then plotted using
Half -life times (t 1/2) were
calculated at the intersection of the curve with y=50%.

N=C(N)NCCC[C@@H]1NC(=O)[C@H]2CC[C@H](C2)NC(=O)[C@@H](NC(=O)Cc2cc(F)c(F)cc2F)CSCc2ccccc2CSCCNC(=O)[C@H](Cc2c[nH]c3ccccc23)NC1=O [Compound 23]
displacement of MLL peptide from WDR5 (WDR5-MLL PPI): ≥ 50%
permeability (PAMPA) ([1]; 100 µM, 18 h incubation, RT): 45%

COc1cc(CC(=O)N[C@H]2CSCc3ccccc3CSCCNC(=O)[C@H](Cc3c[nH]c4ccccc34)NC(=O)[C@H](CCCNC(=N)N)NC(=O)[C@H]3CC[C@H](C3)NC2=O)cc(OC)c1OC [Compound 17Δ]
inhibition of MV-4:11 cell proliferation, in words (MV-4:11 cells): did not inhibit cancer cell proliferation
Permeability (%) ([1]; PAMPA): 17.17%
permeability (PAMPA) ([1]; PAMPA): 16%

N=C(N)NCCC[C@@H]1NC(=O)[C@H](Cc2ccc(O)c(Cl)c2)NC(=O)[C@H](CCCCN)NC(=O)[C@@H](NC(=O)c2ccc(S(N)(=O)=O)cc2)CSSC[C@@H](C(=O)N[C@@H](CCCCN)C(=O)NCCCC[C@H](N)C(=O)NCCCC[C@H](N)C(=O)N[C@@H](CCCCNC(=O)CCCC[C@@H]2SC[C@@H]3NC(=O)N[C@@H]32)C(N)=O)NC1=O [Compound 7] ({Benzoyl(4-SO2NH2)}-CK[Tyr(3-Cl)]RCK[εLys][εLys]K(Biotin)-NH2; disulfide 1-5)
Kd (CAIX): 1 nM

COc1cc(CC(=O)N(C)[C@H]2CSCc3ccccc3CSCCNC(=O)[C@H](Cc3c[nH]c4ccccc34)NC(=O)[C@H](CCCNC(=N)N)NC(=O)[C@H]3CC[C@H](C3)NC2=O)cc(OC)c1OC [s5]
Binding (ratio to control) (WDR5-MLL PPI): 0.37
passive permeability (PAMPA), in words ([1]; PAMPA): reduced permeability

CC(=O)N[C@H]1CSSC[C@@H](C(N)=O)NC(=O)[C@H](Cc2c[nH]c3ccccc23)NC(=O)[C@H](CCCNC(=N)N)NC(=O)[C@H]2CC[C@H](C2)NC1=O [Compound 15] (Ac-C[X1]RWC-NH2; disulfide 1-5; C-terminus assumed)
inhibition of WDR5-MLL interaction, in words (WDR5-MLL PPI; WDR5 50 nM): reduced (yet not abolished) activity; also recorded: maintained partial inhibitory activity

COc1cc(CC(=O)N[C@H]2CSCc3cccc(c3)CSCCNC(=O)[C@H](Cc3c[nH]c4ccccc34)NC(=O)[C@H](CCCNC(=N)N)NC(=O)[C@H]3CC[C@H](C3)NC2=O)cc(OC)c1OC [Compound 18Δ]
permeability (PAMPA) ([1]; PAMPA): 11%

COc1cc(CC(=O)N[C@H]2CSCc3ccc(cc3)-c3ccc(cc3)CSCCNC(=O)[C@H](Cc3c[nH]c4ccccc34)NC(=O)[C@H](CCCNC(=N)N)NC(=O)[C@H]3CC[C@H](C3)NC2=O)cc(OC)c1OC [Compound 20Δ]
permeability (PAMPA) ([1]; PAMPA): < 5%

N=C(N)NCCC[C@@H]1NC(=O)[C@H]2CC[C@H](C2)NC(=O)[C@@H](NC(=O)CCc2ccc(Br)cc2)CSCc2ccccc2CSCCNC(=O)[C@H](Cc2c[nH]c3ccccc23)NC1=O [Compound 28]
displacement of MLL peptide from WDR5 (WDR5-MLL PPI): ≥ 50%

COc1cc(CC(=O)N[C@H]2CSCc3ccccc3CSC[C@@H](C(N)=O)NC(=O)[C@H](Cc3c[nH]c4ccccc34)NC(=O)[C@H](CCCNC(=N)N)NC(=O)[C@H]3CC[C@H](C3)NC2=O)cc(OC)c1OC [Compound 17] ({Phenylacetyl(3,4,5-triOMe)}-C[X1]RWC-NH2; linker 1-5 via oXylylene; C-terminus assumed)
inhibition of WDR5-MLL interaction, in words (WDR5-MLL PPI; WDR5 50 nM): retained strong inhibition potency

CCCCCC(C)C(=O)N[C@H]1CSCc2ccccc2CSCCNC(=O)[C@H](Cc2c[nH]c3ccccc23)NC(=O)[C@H](CCCNC(=N)N)NC(=O)[C@H]2CC[C@H](C2)NC1=O (stereo partly shown) [Compound 27]
displacement of MLL peptide from WDR5 (WDR5-MLL PPI): ≥ 50%
permeability (PAMPA) ([1]; 100 µM, 18 h incubation, RT): 72%

COc1cc(CC(=O)N[C@H]2CSSC[C@@H](C(N)=O)NC(=O)[C@H](Cc3c[nH]c4ccccc34)NC(=O)[C@H](CCCNC(=N)N)NC(=O)[C@H]3CC[C@H](C3)NC2=O)cc(OC)c1OC [Compound 14] ({Phenylacetyl(3,4,5-triOMe)}-C[X1]RWC-NH2; disulfide 1-5; C-terminus assumed)
inhibition of WDR5-MLL interaction, in words (WDR5-MLL PPI; WDR5 50 nM): maintains full activity; also recorded: no association was detected; also recorded: comparable inhibitory potency
IC50 (WDR5-MLL PPI; 16 immobilized at 100 nM, WDR5 50 nM, lower detection limit 25 nM, read-out: IC50, inhibition of WDR5-MLL PPI (BLI competition)): < 25 nM
permeability (PAMPA) ([1]; PAMPA): < 1%

COc1cc(CC(=O)N[C@H]2CSCc3ccccc3CSCCNC(=O)[C@H](Cc3c[nH]c4ccccc34)N(C)C(=O)[C@H](CCCNC(=N)N)NC(=O)[C@H]3CC[C@H](C3)NC2=O)cc(OC)c1OC [s7]
Binding (ratio to control) (WDR5-MLL PPI): 0.83
passive permeability (PAMPA), in words ([1]; PAMPA): reduced permeability

COc1cc(CC(=O)N[C@H]2CSCc3ccc(cc3)CSCCNC(=O)[C@H](Cc3c[nH]c4ccccc34)NC(=O)[C@H](CCCNC(=N)N)NC(=O)[C@H]3CC[C@H](C3)NC2=O)cc(OC)c1OC [Compound 19Δ]
permeability (PAMPA) ([1]; PAMPA): < 5%

N=C(N)NCCC[C@@H]1NC(=O)[C@H]2CC[C@H](C2)NC(=O)[C@@H](NC(=O)Cc2ccccc2Br)CSCc2ccccc2CSCCNC(=O)[C@H](Cc2c[nH]c3ccccc23)NC1=O [Compound 26]
displacement of MLL peptide from WDR5 (WDR5-MLL PPI): ≥ 50%

N=C(N)NCCC[C@@H]1NC(=O)[C@H]2CC[C@H](C2)NC(=O)[C@@H](NC(=O)c2ccc(Cl)s2)CSCc2ccccc2CSCCNC(=O)[C@H](Cc2c[nH]c3ccccc23)NC1=O [Compound 25]
remaining at 24 h, 25 μM [2]: > 50%
displacement of MLL peptide from WDR5 (WDR5-MLL PPI): ≥ 50%
permeability (PAMPA) ([1]; 100 µM, 18 h incubation, RT): 51%
